Results taken from patent US11878276B2, “Nanobiocatalyst and nanobiocatalytic membrane” (University of Vermont and State Agricultural College, priority 2017, dated 2024).

Tested on: Gram positive and Gram negative bacteria
Assay: minimum inhibitory concentration of bismuth
Type: cell-based
Description: In particular, in one embodiment, antimicrobial lipophilic bismuth dimercaptopropanol nanoparticles (BisBAL NPs) may be used. In one embodiment, the bismuth concentration on the membrane surface may be approximately 0.437 g/m^2. In one embodiment, the toxic range of Bi^+3 concentration (minimum inhibitory concentration) for Gram positive and Gram negative bacteria is 15-16 μM. […] In one embodiment, the bismuth nanoparticles are roughly spherical and are approximately 20 nm wide. […] In another embodiment, other antibacterial nanoparticles are also contemplated, such as, but not limited to Zinc Oxide (ZnO), Copper Oxide (CuO), Iron Oxide (Fe2O3), and Silver (Ag).

[Bi+3] [Bi^+3]
toxic range of Bi^+3 concentration (minimum inhibitory concentration): 15 to 16 µM
